{
  "source": "ChEMBL document CHEMBL1201862",
  "about": "“PubChem BioAssay data set” (2004)",
  "key": {"[1]": {"assay": "off-target signal loss in HeLa-CEM21 co-culture – HeLa F-luc CTL cells, cherry-picked, counter-screen for HIV-1 Env fusion inhibitor project, dose response (AID 652040);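 note: potency for signal decrease marking cytotoxic or nonspecific inhibition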", "type": "functional, cell-based"}, "Mu-type opioid receptor": {"biological_target": "Mu-type opioid receptor (Homo sapiens, UniProt P35372)", "sequence (P35372 whole entry)": "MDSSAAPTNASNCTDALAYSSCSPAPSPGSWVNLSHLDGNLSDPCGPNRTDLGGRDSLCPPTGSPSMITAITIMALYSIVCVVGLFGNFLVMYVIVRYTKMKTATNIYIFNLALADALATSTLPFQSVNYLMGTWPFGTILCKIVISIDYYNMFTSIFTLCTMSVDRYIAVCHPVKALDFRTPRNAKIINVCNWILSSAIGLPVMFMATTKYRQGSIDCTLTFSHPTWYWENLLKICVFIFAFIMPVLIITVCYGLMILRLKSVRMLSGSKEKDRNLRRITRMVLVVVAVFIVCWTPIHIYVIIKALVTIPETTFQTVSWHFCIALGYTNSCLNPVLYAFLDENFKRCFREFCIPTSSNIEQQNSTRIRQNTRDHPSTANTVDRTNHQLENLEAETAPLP", "assay": "(§1) Counterscreen for agonists of heterodimerization of the mu 1 (OPRM1) and delta 1 (OPRD1) opioid receptors: Luminescence-based cell-based high throughput dose response assay to identify agonists of OPRM1 homodimerization.", "type": "functional"}, "[2]": {"assay": "blockers of HIV-1 envelope-mediated cell-cell fusion – cherry-pick, dose response (AID 652057)", "type": "functional, cell-based"}, "[3]": {"assay": "HIV-1 AD8 envelope cell-cell fusion blockers – cherry-pick, dose response (AID 652062)", "type": "functional, cell-based"}, "[4]": {"biological_target": "Delta-type opioid receptor (Homo sapiens, UniProt P41143)", "sequence (P41143 whole entry)": "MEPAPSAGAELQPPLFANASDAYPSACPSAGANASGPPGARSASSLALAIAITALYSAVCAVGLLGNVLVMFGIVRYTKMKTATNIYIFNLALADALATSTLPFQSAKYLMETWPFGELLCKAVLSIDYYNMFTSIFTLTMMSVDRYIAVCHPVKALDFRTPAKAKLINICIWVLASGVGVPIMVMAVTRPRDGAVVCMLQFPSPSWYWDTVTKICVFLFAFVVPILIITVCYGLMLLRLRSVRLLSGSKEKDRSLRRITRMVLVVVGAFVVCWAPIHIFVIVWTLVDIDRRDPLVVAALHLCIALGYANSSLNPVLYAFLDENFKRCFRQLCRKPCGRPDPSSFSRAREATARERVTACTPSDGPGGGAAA", "assay": "as §1, with “of OPRD1” for “of OPRM1”, “homodimerization. [Related pubchem assays (depositor defined):AID504326, AID504355, AID504692, AID504904, AID504905]” for “homodimerization.”", "type": "functional"}, "[5]": {"biological_target": "5-hydroxytryptamine receptor 5A (Homo sapiens, UniProt P47898)", "sequence (P47898 whole entry)": "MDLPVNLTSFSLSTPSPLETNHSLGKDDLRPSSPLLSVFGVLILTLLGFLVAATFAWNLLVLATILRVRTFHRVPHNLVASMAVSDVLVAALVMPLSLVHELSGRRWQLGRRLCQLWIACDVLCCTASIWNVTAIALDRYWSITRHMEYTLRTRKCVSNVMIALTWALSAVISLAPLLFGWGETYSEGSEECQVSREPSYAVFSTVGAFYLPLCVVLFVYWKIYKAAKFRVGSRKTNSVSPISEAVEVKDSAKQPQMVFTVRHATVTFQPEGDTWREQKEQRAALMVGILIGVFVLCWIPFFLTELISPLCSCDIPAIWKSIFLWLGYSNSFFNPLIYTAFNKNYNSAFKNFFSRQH", "assay": "Counterscreen for agonists of OPRM1-OPRD1 heterodimerization: luminescence-based cell-based high throughput dose response assay to identify agonists of 5-hydroxytryptamine (serotonin) 5A receptor (HTR5A). [Related pubchem assays (depositor defined):AID504326, AID504355, AID504692, AID504904, AID504905]", "type": "functional"}, "[6]": {"assay": "blockers of HIV-1 ZM109 envelope-driven cell-cell fusion – HeLa effector, CEM target cells, luciferase, cherry-pick, dose response (AID 652058)", "type": "functional, cell-based"}, "[7]": {"biological_target": "T1, Short transient receptor potential channel 4 (Mus musculus, UniProt Q9QUQ5)", "T1 sequence (Q9QUQ5 whole entry)": "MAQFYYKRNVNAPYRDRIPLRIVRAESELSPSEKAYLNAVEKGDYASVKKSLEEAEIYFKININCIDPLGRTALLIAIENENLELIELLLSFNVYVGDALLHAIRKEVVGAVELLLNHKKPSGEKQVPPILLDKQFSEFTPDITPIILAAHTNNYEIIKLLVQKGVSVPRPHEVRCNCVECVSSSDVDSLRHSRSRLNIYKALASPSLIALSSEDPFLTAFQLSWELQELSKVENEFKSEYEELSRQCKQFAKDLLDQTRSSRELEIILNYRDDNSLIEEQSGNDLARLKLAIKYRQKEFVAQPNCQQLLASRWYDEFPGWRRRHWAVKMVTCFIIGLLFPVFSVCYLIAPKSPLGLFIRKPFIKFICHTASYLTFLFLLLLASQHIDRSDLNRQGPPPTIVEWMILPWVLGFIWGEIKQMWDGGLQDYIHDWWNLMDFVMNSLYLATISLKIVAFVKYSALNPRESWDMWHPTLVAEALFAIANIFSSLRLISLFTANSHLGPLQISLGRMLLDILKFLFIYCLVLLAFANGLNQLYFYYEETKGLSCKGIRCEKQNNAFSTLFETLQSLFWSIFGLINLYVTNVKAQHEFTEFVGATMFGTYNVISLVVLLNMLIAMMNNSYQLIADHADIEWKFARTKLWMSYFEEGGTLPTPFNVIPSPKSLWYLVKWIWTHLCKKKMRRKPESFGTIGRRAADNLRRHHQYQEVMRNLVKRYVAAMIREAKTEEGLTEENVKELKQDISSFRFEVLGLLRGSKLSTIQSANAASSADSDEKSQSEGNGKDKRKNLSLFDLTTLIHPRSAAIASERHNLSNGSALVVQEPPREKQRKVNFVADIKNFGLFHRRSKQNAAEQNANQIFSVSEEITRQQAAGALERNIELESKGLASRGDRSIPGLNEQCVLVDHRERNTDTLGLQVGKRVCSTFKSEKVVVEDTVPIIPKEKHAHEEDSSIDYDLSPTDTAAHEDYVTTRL", "assay": "calcium entry via TRPC4 opening agents – cell-based, HEK293 TRPC4/mu-opioid, Fluo-4 calcium, dose response (AID 434937)", "type": "functional"}, "HEK293 [8]": {"tested_on": "HEK293", "assay": "cells", "conditions": "Homo sapiens"}, "[9]": {"assay": "potency of ADAM10 substrate cleavage blockers – biochemical, QFRET, dose response (AID 743254)"}, "[10]": {"biological_target": "Disintegrin and metalloproteinase domain-containing protein 17 (Homo sapiens, UniProt P78536)", "sequence (P78536 whole entry, the tested form may be a part)": "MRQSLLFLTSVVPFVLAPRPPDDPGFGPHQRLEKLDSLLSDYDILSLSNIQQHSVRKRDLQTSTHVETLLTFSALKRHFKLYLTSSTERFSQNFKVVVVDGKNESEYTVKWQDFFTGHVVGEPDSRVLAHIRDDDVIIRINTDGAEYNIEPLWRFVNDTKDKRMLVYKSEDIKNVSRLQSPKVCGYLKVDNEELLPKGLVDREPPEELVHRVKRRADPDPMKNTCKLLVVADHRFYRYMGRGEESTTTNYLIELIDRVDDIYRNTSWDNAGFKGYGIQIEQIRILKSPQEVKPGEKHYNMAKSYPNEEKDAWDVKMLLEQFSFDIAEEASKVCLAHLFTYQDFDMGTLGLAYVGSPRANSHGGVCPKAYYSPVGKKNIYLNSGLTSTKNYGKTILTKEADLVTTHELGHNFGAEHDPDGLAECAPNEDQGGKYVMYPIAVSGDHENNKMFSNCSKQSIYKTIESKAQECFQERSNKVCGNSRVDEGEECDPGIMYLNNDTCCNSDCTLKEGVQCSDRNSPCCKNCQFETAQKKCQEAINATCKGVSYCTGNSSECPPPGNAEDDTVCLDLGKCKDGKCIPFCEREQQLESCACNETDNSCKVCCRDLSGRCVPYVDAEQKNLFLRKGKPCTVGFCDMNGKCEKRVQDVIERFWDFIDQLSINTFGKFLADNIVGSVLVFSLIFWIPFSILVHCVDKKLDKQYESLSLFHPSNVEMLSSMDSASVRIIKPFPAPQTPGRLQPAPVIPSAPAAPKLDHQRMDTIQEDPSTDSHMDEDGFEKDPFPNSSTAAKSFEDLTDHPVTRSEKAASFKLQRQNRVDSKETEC", "assay": "inhibition of ADAM17 substrate cleavage – biochemical, quenched FRET substrate, counter-screen for ADAM10 exosite inhibitor project, dose response (AID 743253)"}, "HEK293 [11]": {"tested_on": "HEK293", "assay": "cells", "conditions": "Homo sapiens", "remark": "listed apart in the source"}, "[12]": {"biological_target": "Lysine-specific demethylase 4C (Homo sapiens, UniProt Q9H3R0)", "sequence (Q9H3R0 whole entry)": "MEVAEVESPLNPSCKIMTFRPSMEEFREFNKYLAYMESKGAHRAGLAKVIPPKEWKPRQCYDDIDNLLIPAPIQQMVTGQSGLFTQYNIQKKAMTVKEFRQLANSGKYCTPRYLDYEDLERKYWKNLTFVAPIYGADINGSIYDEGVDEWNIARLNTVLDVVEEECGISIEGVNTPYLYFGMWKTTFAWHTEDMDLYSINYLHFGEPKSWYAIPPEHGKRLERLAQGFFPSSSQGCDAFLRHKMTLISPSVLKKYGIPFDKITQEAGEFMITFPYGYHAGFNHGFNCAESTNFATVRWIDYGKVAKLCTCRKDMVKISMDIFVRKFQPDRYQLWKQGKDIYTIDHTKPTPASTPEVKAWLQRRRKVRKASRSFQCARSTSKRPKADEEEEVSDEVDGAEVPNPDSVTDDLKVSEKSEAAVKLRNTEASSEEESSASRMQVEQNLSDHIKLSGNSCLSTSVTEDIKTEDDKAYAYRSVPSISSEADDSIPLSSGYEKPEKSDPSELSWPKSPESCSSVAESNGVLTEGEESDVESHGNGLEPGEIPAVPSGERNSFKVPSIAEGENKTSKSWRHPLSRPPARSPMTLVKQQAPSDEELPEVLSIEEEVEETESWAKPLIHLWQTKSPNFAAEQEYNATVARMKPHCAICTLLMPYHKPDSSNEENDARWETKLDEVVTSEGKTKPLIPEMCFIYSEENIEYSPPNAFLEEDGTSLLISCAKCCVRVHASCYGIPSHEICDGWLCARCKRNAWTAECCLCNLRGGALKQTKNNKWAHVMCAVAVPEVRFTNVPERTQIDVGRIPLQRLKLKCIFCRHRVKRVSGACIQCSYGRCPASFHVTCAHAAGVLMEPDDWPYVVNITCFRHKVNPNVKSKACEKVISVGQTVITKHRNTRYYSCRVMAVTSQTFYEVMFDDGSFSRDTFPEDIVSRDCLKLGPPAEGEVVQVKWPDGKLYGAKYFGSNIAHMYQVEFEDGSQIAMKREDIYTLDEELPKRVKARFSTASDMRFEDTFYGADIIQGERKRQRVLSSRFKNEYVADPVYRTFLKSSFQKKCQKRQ", "assay": "inhibition of JMJD2C H3K9me3 demethylation – biochemical, DELFIA europium, cherry-picked samples, dose response (AID 488835)", "type": "functional"}, "Vero": {"tested_on": "Vero", "assay": "cells", "type": "functional", "conditions": "Chlorocebus sabaeus"}, "[13]": {"assay": "viability loss of HMLE_sh_eGFP cells – cell-based, luminescence, counter-screen for HMLE_sh_ECad selective toxicity project, dose response (AID 463074)", "type": "functional, Homo sapiens"}, "[14]": {"assay": "Luminescence Cell-Based Dose Retest to Confirm Inhibitors of Cancer Stem Cells. [Related pubchem assays (depositor defined):AID2717, AID2721]", "type": "functional", "conditions": "Homo sapiens"}},
  "note": "Calls of active or inactive are those of the source.",
  "data": [
    {"smiles": "Cc1ccc(C)c(-n2cc(CNCCCn3cccn3)c(-c3ccccc3)n2)c1", "values": [
      {"measurement": "AC50", "setting": "[1]", "value": "1.82 µM (active)"},
      {"measurement": "EC50", "setting": "Mu-type opioid receptor", "value": "10.1 µM (inactive)"},
      {"measurement": "AC50", "setting": "[2]", "value": "1.28 µM (active)"},
      {"measurement": "AC50", "setting": "[3]", "value": "2.56 µM (active)"},
      {"measurement": "EC50", "setting": "[4]", "value": "> 92.5 µM (inactive)"},
      {"measurement": "EC50", "setting": "[5]", "value": "> 92.5 µM (inactive)"},
      {"measurement": "AC50", "setting": "[6]", "value": "0.631 µM (active)"},
      {"measurement": "EC50", "setting": "[7]", "value": "1.5 µM (active)"}
    ]},
    {"smiles": "O=S(=O)(NCC(Nc1ccc(Cl)cc1)c1ccccc1)c1ccc(Cl)cc1", "note": "(stereo unspecified)", "values": [
      {"measurement": "EC50", "setting": "HEK293 [8]", "value": "> 59.7 µM (inactive)"},
      {"measurement": "IC50", "setting": "[9]", "value": "11.7 µM (inactive)"},
      {"measurement": "IC50", "setting": "[10]", "value": "> 69.5 µM (inactive)"},
      {"measurement": "EC50", "setting": "HEK293 [11]", "value": "> 59.7 µM (inactive)"}
    ]},
    {"smiles": "Oc1cc(NC2CCCCCC2)nc(O)n1", "values": [
      {"measurement": "AC50", "setting": "[12]", "value": "8.69 µM (active)"}
    ]},
    {"smiles": "Cc1cc(N/N=C/c2ccc(Cl)cc2Cl)nc(NCc2ccccc2)n1", "values": [
      {"measurement": "CC50", "setting": "Vero", "value": "> 25 µM (active)"},
      {"measurement": "AC50", "setting": "[13]", "value": "32.2 µM (active)"},
      {"measurement": "AC50", "setting": "[14]", "value": "3.49 µM (active)"}
    ]}
  ]
}
